We go through 49 compounds from the supplement of paper PMC3974653.

Where a name gives a salt, the structure may show the parent alone. Some results are limits rather than exact numbers.

The subject of this assay is MTT (mouse pheochromocytoma). Nature of the assay: IC50 of cell viability (ATP content). The following applies: (24 or 48 h). Summed up: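 Cells of the MTT mouse pheochromocytoma line, 5 µl per well at 200,000 cells/ml, were grown overnight at 37°C, 5% CO2 in white 1536-well plates with DMEM, 5% FBS and 1% horse serum. Pintool transfer then delivered 23 nl of library compound in DMSO, giving 8 final concentrations from 0.5 nM to 46 µM, for an exposure of 24 or 48 hrs. Luminescence from CellTiter-Glo was read after 15 minutes and referenced to positive-control wells (100%) and DMSO wells (0%). IC50 was calculated with a four-parameter logistic fit.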

Turning to `N[S+]([O-])(=O)C1=C(Cl)C=C2NC(N[S+]([O-])(=O)C2=C1)C3CC\4CC3\C=C4` (centres undefined) [CYCLOTHIAZIDE], the “IC50 of cell viability” value was more than 46 µM.
The result for `CN1CCC(CC1)=C2C3=C(C=CC=C3)\C=C/C4=C2C=CC=C4` [CYPROHEPTADINE] reads more than 46 µM.
The result for `O=C(Nc1ccc(Cl)c(Cl)c1)C1CC1` [CYPROMID] reads more than 46 µM; that for `CC(=O)[C@]1(O)CCC2C3/C=C(Cl)\C4=C\C(=O)C5CC5[C@@]4(C)C3CC[C@@]12C` (some centres undefined) [CYPROTERONE], more than 46 µM; that for `Nc1nc(N)nc(NC2CC2)n1` [CYROMAZINUM], more than 46 µM.
Take `NC(CS)C(=O)O` (centres undefined) [CYSTEINE HYDROCHLORIDE]: the “IC50 of cell viability” value was more than 46 µM.
Then `NC(CSSCC(N)C(=O)O)C(=O)O` (centres undefined) [CYSTINE], with more than 46 µM; and `CNC(=O)C(N)CSC(C)C1=C(C)C2=Cc3c(C(C)SCC(N)C(=O)NC)c(C)c4[n]3[Fe]35[n]6c(c(C)c(CCC(=O)O)c6=CC6=[N+]3C(=C4)C(C)=C6CCC(=O)O)=CC1=[N+]25` (centres undefined) [CYTOCHROME C], with more than 46 µM; and `[O]=[Cd]` [Cadmium oxide], with more than 46 µM.
Then `CCOC(=O)NNc1ccc(N(CC)CC(C)O)nn1` (centres undefined) [Cadralazine], with more than 46 µM; and `Cn1c(=O)c2c(ncn2C)n(C)c1=O` [Caffeine, citrated], with more than 46 µM.
As to `CC(=O)CCC(=O)[O-]` [Calcium Levulinate], the “IC50 of cell viability” value was more than 46 µM.
Then `CC1(C)[C@@H]2CC[C@@]1(C)C(=O)C2` [Camphor], with more than 46 µM; and `C=CC(=O)Nc1cc2c(Nc3ccc(F)c(Cl)c3)ncnc2cc1OCCCN1CCOCC1` [Canertinib], with more than 46 µM.
For the compound `CCCCCc1cc(O)c2c(c1)OC(C)(C)c1ccc(C)cc1-2` [Cannabinol], the “IC50 of cell viability” value is more than 46 µM.
Then `[K+].C[C@@]12CCC(=O)\C=C1\C=C/[C@@H]3[C@@H]2CC[C@]4(C)[C@@H]3CC[C@]4(O)CCC([O-])=O` [Canrenoic acid potassium salt], with more than 46 µM; and `CCCCCOC(=O)Nc1nc(=O)n(C2O[C@H](C)[C@@H](O)[C@@H]2O)cc1F` (some centres undefined) [Capecitabine], with more than 46 µM; and `CC1(C)S[C@@H]2[C@H](NC(=O)CC3=CC=CC=C3)C(=O)[N@@]2[C@@H]1C(O)=O` [Capicillin], with more than 46 µM.
The result for `COc1cc(CNC(=O)CCCC/C=C/C(C)C)ccc1O` [Capsaicin] reads more than 46 µM; that for `NC(=O)N1C2=C(C=CC=C2)\C=C/C3=C1C=CC=C3` [Carbamazepine], more than 46 µM.
The result for `CNC(=O)Oc1cccc2ccccc12` [Carbaryl] reads more than 46 µM; that for `CN1CC(O)C2=C/C(=N/NC(N)=O)C(=O)C=C21` (centres undefined) [Carbazochrome], more than 46 µM.
Take `CC1(C)S[C@@H]2[C@H](NC(=O)C(C(=O)Oc3ccc4c(c3)CCC4)c3ccccc3)C(=O)N2[C@H]1C(=O)O` (some centres undefined) [Carbenicillin indanyl]: the “IC50 of cell viability” value was more than 46 µM.
Then `[Na+].[Na+].CC1(C)[C@H](CC[C@@]2(C)[C@H]1CC[C@@]3(C)[C@H]2C(=O)\C=C4\[C@H]5C[C@@](C)(CC[C@]5(C)CC[C@]34C)C([O-])=O)OC(=O)CCC([O-])=O` [Carbenoxolone disodium salt], with more than 46 µM; and `CCOC(=O)N1\C=C/N(C)C1=S` [Carbimazole], with more than 46 µM; and `CN(C)CCOC(c1ccc(Cl)cc1)c1ccccn1` (centres undefined) [Carbinoxamine maleate], with more than 46 µM.
Take `CCOC(=O)NC(O)C(Cl)(Cl)Cl` (centres undefined) [Carbocloral]: the “IC50 of cell viability” value was more than 46 µM.
Take `S=C=S` [Carbon disulfide]: the “IC50 of cell viability” value is more than 46 µM.
Then `ClC(Cl)(Cl)Cl` [Carbon tetrachloride], with more than 46 µM.
Regarding `CCCCNC(=O)N[S+](=O)([O-])c1ccc(N)cc1` [Carbutamide], the “IC50 of cell viability” value was more than 46 µM.
As for `CCCC(C)(COC(N)=O)COC(=O)NC(C)C` (centres undefined) [Carisoprodol], the “IC50 of cell viability” value was more than 46 µM.
Then `O=NN(CCCl)C(=O)NCCCl` [Carmustine], with more than 46 µM.
The result for `CCN(CC)CCN1C(=O)\C(=N/C2=CC=CC=C12)CC3=CC=C(OC)C=C3` [Caroverine hydrochloride] reads more than 46 µM.
The result for `O=c1[nH]c(=O)c2ccccc2o1` [Carsalam] reads more than 46 µM.
As to `CC(C)(C)NC[C@H](O)COc1cccc2c1CCC(=O)N2` [Carteolol hydrochloride], the “IC50 of cell viability” value was more than 46 µM.
Then `N[C@@H](C(=O)N[C@H]1[C@H]2SC\C(=C(/N2C1=O)C(O)=O)Cl)C3=CC=CC=C3` [Cefaclorum], with more than 46 µM; and `C\C1=C(\[N@]2[C@@H](SC1)[C@H](NC(=O)[C@@H](N)C3=CC=C(O)C=C3)C2=O)C(O)=O` [Cefadroxil], with more than 46 µM; and `CC1=C(C(=O)O)N2C(=O)[C@@H](NC(=O)[C@H](N)c3ccccc3)[C@H]2SC1` [Cefalexina], with more than 46 µM.
Regarding `NC(=O)C1=CC=[N+](C\C2=C(\[N@]3[C@@H](SC2)[C@H](NC(=O)CC4=CC=CS4)C3=O)C([O-])=O)C=C1` [Cefalonium], the “IC50 of cell viability” value was more than 46 µM.
For the compound `CC(=O)OCC1=C(C(=O)[O-])N2C(=O)C(NC(=O)Cc3ccccc3)C2SC1` (centres undefined) [Cefaloram], the “IC50 of cell viability” value is more than 46 µM.
Then `CC(=O)OCC1=C(C(=O)O)N2C(=O)[C@@H](NC(=O)Cc3cccs3)[C@H]2SC1` [Cefalotina], with more than 46 µM; and `Cn1nnnc1SCC1=C(C(=O)O)N2C(=O)[C@@H](NC(=O)[C@H](OC=O)c3ccccc3)[C@H]2SC1` [Cefamandole nafate], with more than 46 µM.
The result for `[Na+].C[N]1N=NN=C1SC\C2=C(\[N@]3[C@@H](SC2)[C@H](NC(=O)[C@@H](O)C4=CC=CC=C4)C3=O)C([O-])=O` [Cefamandole sodium salt] reads more than 46 µM.
The result for `Cc1nnc(SCC2=C(C(=O)O)N3C(=O)[C@@H](NC(=O)Cn4cnnn4)[C@H]3SC2)s1` [Cefazolin] reads more than 46 µM; that for `CC/C=C(/C(=O)N[C@@H]1C(=O)N2C(C(=O)OCOC(=O)C(C)(C)C)=C(COC(N)=O)CS[C@H]12)c1csc(N)n1` [Cefcapene pivoxil HCl], more than 46 µM; that for `CC/C=C(\C(=O)N[C@H]1C(=O)N2C(C(=O)OCOC(=O)C(C)(C)C)=C(COC(N)=O)CS[C@H]12)c1csc(N)n1` [Cefcapene pivoxil hydrochloride], more than 46 µM.
In the case of `C=CC1=C(C(=O)O)N2C(=O)[C@@H](NC(=O)C(N=O)c3csc(N)n3)[C@H]2SC1` (some centres undefined) [Cefdinir], the “IC50 of cell viability” value was more than 46 µM.
Then `CO/N=C(\C(=O)N[C@@H]1C(=O)N2C(C(=O)[O-])=C(C[N+]3(C)CCCC3)CS[C@@H]12)c1csc(N)n1.Cl.O` [Cefepime hydrochloride], with more than 46 µM; and `C=CC1=C(C(=O)O)N2C(=O)[C@@H](NC(=O)/C(=N\OCC(=O)O)c3csc(N)n3)[C@@H]2SC1` [Cefixime], with more than 46 µM.
